Values of other authors as cited in US20170058282A1 (priority 2015, published 2017).

System: heme sensor system HssRS (histidine kinase HssS / response regulator HssR)
Conditions: natural HssRS; cited from earlier work

## C=CC1=C(C)c2cc3[nH]c(cc4nc(cc5[nH]c(cc1n2)c(C)c5CCC(=O)O)C(CCC(=O)O)=C4C)c(C)c3C=C.[Fe+2] [heme]
  responsive concentrations of heme: sub-μM
